How the values were obtained:
HeyA8-MDR cancer cells [1] = assay: TUNEL assay on tumor tissue of tumor mouse model; type: in vivo, BALB/c nude mouse
Source text: The tumor tissue of the respective groups excised in Example 4-2 above was subjected to a TUNEL assay to identify the level of apoptosis in the tumor tissue (FIG. 4I).

drug-resistant PDX model = assay: TUNEL assay on tumor-implanted kidney tissue of drug-resistant PDX model; type: in vivo, mouse
Source text: The tumor-implanted kidney tissue of the respective groups excised in Example 4-4-2 above was subjected to a TUNEL assay to identify the level of apoptosis in the tumor-implanted kidney tissue (FIG. 5H).

Kif15 protein = assay: Kif15 expression at the protein level (western blot) in HeyA8-MDR cells; type: cell-based; settings: 50 nM siKSP and/or 2000 nM PTX, 48 hours
Method: The cells recovered in Example 3-3 above were analyzed by western blotting using an anti-Kif15 antibody (FIG. 2D).

Kif15 mRNA = Kif15 mRNA level in drug-resistant PDX model; type: in vivo, mouse; settings: relative to control
Method: The levels of Kif15 mRNA expressed in tumor tissue of the respective groups excised in Example 4-4-2 above were measured by qRT-PCR as an application method of that of Example 3-3 (FIG. 5E).

HeyA8-MDR cancer cells [2] = assay: Anti-cancer effect in tumor mouse model; type: in vivo, BALB/c nude mouse; settings: 26 days after injection
Method: First, HeyA8-MDR cancer cells (1×10^8) were injected into the left thigh of a 5-week-old female BALB/c nude mouse, and then left until cancer tissue grew to a volume of about 50 mm3 to prepare 20 tumor mouse xenograft models.
Subsequently, at 26 days after injection of each of the samples, tumor tissue was excised from each tumor mouse model and weighed (FIG. 4B).
In addition, at 26 days after injection of each of the samples, tumor tissue was excised from each tumor mouse model, and tumor growth inhibition (TGI) rate was measured (FIG. 4C).

Kif15 gene = assay: Kif15 expression at the gene level (qRT-PCR) in HeyA8-MDR cells; type: cell-based; settings: 50 nM siKSP and/or 2000 nM PTX, 48 hours
Method: Subsequently, total RNA was obtained respectively from the recovered cells using an RNeasy mini kit (Qiagen, US), cDNA was synthesized from the obtained total RNA using a TOPscript cDNA synthesis kit (Enzynomics, Korea), and PCR was performed using a StepOne qRT-PCR system (Thermo Fisher scientific) and primers specific to a Kif15 gene (SEQ ID NOS: 7 and 8) or primers specific to a β-actin gene (SEQ ID NOS: 5 and 6).
Thereafter, the levels of the amplified products obtained from the PCR were measured, and the measured levels were standardized with respect to an expression amount of β-actin, and then relative levels of Kif15 mRNA was calculated (FIG. 2C).

HeyA8-MDR cells = assay: Anti-cancer activity, MTT cell viability and Bliss independence; type: cell-based; settings: single agent, 0 to 200 nM liposome or 0 to 2000 nM paclitaxel, 48 hours
Method: The recovered cells were cultured in a fresh medium supplemented with a 10% MTT solution for 3 hours and formazan crystals generated by treatment with a Sorensen's glycine buffer and DMSO was dissolved therein. Thereafter, the absorbance thereof was measured at 570 nm and the cell viability was calculated using the same (FIG. 2G).
The cell viabilities of the cells were compared (FIG. 2H).
In addition, in order to quantitatively analyze a reduction level of the cell viability, the measured absorbance was applied to the following equation to calculate an expected inhibition level of cancer cells, and the obtained expected inhibition level was compared with an observed inhibition level of the cancer cells (FIGS. 2I to 2K). […] Expected inhibition level=FsiKSP-liposome+FPTX−(FsiKSP-liposome×FPTX)
Thereafter, cell viability inhibition levels and expected inhibition levels calculated therefrom were compared with each other (FIG. 2L). […] Expected Inhibition Level=Fa+Fb−(Fa×Fb)

CC(=O)O[C@H]1C(=O)[C@@]2(C)[C@H]([C@H](OC(=O)c3ccccc3)[C@]3(O)C[C@H](OC(=O)[C@H](O)[C@@H](NC(=O)c4ccccc4)c4ccccc4)C(C)=C1C3(C)C)[C@]1(OC(C)=O)CO[C@@H]1C[C@@H]2O [paclitaxel]
apoptosis in tumor tissue (TUNEL) (HeyA8-MDR cancer cells [1]): not induced or induced in a low level | apoptosis in tumor-implanted kidney tissue (TUNEL) (drug-resistant PDX model): not induced or induced in a low level | level of the Kif15 protein (Kif15 protein): decreased | Kif15 mRNA level in tumor-implanted kidney tissue (Kif15 mRNA): decreased | tumor growth inhibition (TGI) rate (HeyA8-MDR cancer cells [2]): about 13.1% | expression level of the Kif15 gene (Kif15 gene): inhibited | cell viability with increasing concentration (HeyA8-MDR cells): decreases
